Data published in patent US10479784B2, “Substituted pyrazin-2-amines as inhibitors of ATR kinase” (Vertex Pharmaceuticals Incorporated, priority 2008, dated 2019).

Target: full-length ATR (Homo sapiens (Human), UniProt Q13535)
Assay: ATR Inhibition Assay (radioactive-phosphate incorporation)
Format: biochemical
Conditions: read-out: ATR Ki
In short: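 Full-length human ATR (5 nM) was assayed at 25 °C in 50 mM Tris/HCl pH 7.5, 10 mM MgCl2, 1 mM DTT, with 10 μM [γ-33P]ATP and 800 μM peptide, after 10-min compound preincubation. Reactions were stopped after 24 h, captured on phosphocellulose and counted; Ki(app) came from non-linear regression of initial rates.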

Chain of full-length ATR (Q13535 whole entry): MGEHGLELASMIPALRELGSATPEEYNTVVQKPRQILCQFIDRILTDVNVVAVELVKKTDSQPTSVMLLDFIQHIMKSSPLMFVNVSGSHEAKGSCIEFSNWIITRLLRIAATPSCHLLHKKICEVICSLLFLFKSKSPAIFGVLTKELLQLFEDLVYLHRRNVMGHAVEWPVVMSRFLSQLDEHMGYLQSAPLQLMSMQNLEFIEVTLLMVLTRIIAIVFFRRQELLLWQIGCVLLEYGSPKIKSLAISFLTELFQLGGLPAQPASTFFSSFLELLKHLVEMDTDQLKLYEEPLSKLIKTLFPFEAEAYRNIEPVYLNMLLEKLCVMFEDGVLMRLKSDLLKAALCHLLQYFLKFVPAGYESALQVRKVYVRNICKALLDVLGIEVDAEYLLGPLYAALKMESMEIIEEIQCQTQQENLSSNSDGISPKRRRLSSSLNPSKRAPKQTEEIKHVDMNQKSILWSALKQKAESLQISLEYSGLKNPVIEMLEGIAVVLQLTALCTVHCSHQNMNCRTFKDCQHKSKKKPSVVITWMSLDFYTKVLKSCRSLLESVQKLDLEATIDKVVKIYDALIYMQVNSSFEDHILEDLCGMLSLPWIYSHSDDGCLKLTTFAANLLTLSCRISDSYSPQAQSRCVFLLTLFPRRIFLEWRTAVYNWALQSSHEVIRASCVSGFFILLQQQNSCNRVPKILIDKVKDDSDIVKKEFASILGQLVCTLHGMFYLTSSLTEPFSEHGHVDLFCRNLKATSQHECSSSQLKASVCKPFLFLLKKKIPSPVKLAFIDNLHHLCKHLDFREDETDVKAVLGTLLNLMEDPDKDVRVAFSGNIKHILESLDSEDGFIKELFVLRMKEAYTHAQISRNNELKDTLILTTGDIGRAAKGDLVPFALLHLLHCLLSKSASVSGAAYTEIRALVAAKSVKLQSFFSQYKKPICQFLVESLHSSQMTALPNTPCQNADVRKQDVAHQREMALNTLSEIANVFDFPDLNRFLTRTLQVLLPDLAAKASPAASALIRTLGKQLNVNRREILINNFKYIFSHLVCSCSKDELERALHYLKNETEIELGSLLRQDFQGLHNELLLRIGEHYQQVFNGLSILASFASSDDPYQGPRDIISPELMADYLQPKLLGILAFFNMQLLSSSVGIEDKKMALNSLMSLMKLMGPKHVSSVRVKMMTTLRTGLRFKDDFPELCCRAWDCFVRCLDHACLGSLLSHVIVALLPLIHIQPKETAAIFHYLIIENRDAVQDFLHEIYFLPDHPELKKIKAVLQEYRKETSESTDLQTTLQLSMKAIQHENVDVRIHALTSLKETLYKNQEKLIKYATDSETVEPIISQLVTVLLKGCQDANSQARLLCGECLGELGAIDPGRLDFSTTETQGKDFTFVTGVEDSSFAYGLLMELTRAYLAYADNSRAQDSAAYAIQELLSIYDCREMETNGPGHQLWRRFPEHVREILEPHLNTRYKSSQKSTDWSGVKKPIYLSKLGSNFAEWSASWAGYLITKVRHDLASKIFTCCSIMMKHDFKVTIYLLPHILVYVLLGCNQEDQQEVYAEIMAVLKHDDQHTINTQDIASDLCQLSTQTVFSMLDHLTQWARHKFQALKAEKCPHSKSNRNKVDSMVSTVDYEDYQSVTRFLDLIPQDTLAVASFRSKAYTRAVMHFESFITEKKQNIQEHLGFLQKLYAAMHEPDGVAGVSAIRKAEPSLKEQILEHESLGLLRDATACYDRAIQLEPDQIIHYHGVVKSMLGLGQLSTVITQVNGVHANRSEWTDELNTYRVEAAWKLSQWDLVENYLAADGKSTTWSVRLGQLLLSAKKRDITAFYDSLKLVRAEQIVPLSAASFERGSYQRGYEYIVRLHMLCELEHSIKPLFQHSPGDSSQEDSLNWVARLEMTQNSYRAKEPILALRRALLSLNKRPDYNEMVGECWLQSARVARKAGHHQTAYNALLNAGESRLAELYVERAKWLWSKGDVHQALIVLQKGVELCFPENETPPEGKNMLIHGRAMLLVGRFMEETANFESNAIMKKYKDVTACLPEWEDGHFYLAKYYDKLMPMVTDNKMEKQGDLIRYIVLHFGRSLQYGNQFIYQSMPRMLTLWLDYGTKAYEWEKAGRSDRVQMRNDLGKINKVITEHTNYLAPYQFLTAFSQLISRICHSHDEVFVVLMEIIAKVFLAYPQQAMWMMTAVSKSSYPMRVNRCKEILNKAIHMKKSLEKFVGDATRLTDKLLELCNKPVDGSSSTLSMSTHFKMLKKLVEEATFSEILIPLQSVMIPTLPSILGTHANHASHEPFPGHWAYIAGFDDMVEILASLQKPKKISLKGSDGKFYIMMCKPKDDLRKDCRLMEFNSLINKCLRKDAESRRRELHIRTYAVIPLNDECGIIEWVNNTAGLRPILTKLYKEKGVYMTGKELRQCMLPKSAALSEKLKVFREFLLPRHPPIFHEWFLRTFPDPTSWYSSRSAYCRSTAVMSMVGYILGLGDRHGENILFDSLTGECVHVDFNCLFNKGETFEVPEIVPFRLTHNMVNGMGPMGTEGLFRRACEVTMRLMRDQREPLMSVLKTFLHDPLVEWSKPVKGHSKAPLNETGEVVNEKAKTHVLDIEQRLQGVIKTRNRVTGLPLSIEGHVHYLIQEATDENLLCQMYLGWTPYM

| Ki | SMILES |
| --- | --- |
| ≤ 10 nM | CNCc1ccc(-c2nnc(-c3nc(-c4ccc(S(=O)(=O)C(C)C)cc4)cnc3N)o2)cc1Cl [IA-309, 3-[5-[3-chloro-4-(methylaminomethyl)phenyl]-1,3,4-oxadiazol-2-yl]-5-(4-isopropylsulfonylphenyl)pyrazin-2-amine] |
| ≤ 10 nM | CCCS(=O)(=O)c1ccc(-c2cnc(N)c(-c3nnc(-c4ccc(CNC)cc4)o3)n2)cc1 [IA-310, 3-[5-[4-(methylaminomethyl)phenyl]-1,3,4-oxadiazol-2-yl]-5-(4-propylsulfonylphenyl)pyrazin-2-amine] |
| ≤ 10 nM | CC(C)S(=O)(=O)c1ccc(-c2cnc(N)c(-c3nnc(-c4ccc(C(C)(C)N)cc4)o3)n2)cc1 [IA-311, 3-[5-[4-(1-amino-1-methyl-ethyl)phenyl]-1,3,4-oxadiazol-2-yl]-5-(4-isopropylsulfonylphenyl)pyrazin-2-amine] |
| ≤ 10 nM | CNCc1ccc(-c2nnc(-c3nc(-c4ccc(S(=O)(=O)C(C)C)c(C)c4)cnc3N)o2)cc1 [IA-312, 5-(4-isopropylsulfonyl-3-methyl-phenyl)-3-[5-[4-(methylaminomethyl)phenyl]-1,3,4-oxadiazol-2-yl]pyrazin-2-amine] |
| ≤ 10 nM | CCC(C)S(=O)(=O)c1ccc(-c2cnc(N)c(-c3nnc(-c4ccc(CNC)cc4)o3)n2)cc1 (centres unmarked) [IA-313, 3-[5-[4-(methylaminomethyl)phenyl]-1,3,4-oxadiazol-2-yl]-5-(4-sec-butylsulfonylphenyl)pyrazin-2-amine] |
| ≤ 10 nM | CNCc1ccc(-c2nnc(-c3nc(-c4ccc(S(=O)(=O)C(C)C)c(F)c4)cnc3N)o2)cc1 [IA-314, 5-(3-fluoro-4-isopropylsulfonyl-phenyl)-3-[5-[4-(methylaminomethyl)phenyl]-1,3,4-oxadiazol-2-yl]pyrazin-2-amine] |
| ≤ 10 nM | CNCc1ccc(-c2nnc(-c3nc(-c4ccc(S(=O)(=O)C(C)C)cc4Cl)cnc3N)o2)cc1 [IA-316, 5-(2-chloro-4-isopropylsulfonyl-phenyl)-3-[5-[4-(methylaminomethyl)phenyl]-1,3,4-oxadiazol-2-yl]pyrazin-2-amine] |
| 100 to 5000 nM | CC(C)S(=O)(=O)c1ccc(-c2cnc(N)c(-c3nnc(NC4CCNCC4)o3)n2)cc1 [IA-318, 5-[3-amino-6-(4-isopropylsulfonylphenyl)pyrazin-2-yl]-N-(4-piperidyl)-1,3,4-oxadiazol-2-amine] |
| ≤ 10 nM | CC(C)S(=O)(=O)c1ccc(-c2cnc(N)c(-c3nnc(-c4ccc(CNC5COC5)cc4F)o3)n2)cc1 [IA-319, 3-[5-[2-fluoro-4-[(oxetan-3-ylamino)methyl]phenyl]-1,3,4-oxadiazol-2-yl]-5-(4-isopropylsulfonylphenyl)pyrazin-2-amine] |
| ≤ 10 nM | CNCc1ccc(-c2nnc(-c3nc(-c4ccc(S(=O)(=O)C(C)C)cc4)cnc3N)o2)cc1O [IA-320, 5-[5-[3-amino-6-(4-isopropylsulfonylphenyl)pyrazin-2-yl]-1,3,4-oxadiazol-2-yl]-2-(methylaminomethyl)phenol] |
| ≤ 10 nM | CNCc1ccc(-c2nnc(-c3nc(-c4ccc(S(=O)(=O)C(C)C)c(F)c4)cnc3N)o2)c(F)c1 [IA-321, 5-(3-fluoro-4-isopropylsulfonyl-phenyl)-3-[5-[2-fluoro-4-(methylaminomethyl)phenyl]-1,3,4-oxadiazol-2-yl]pyrazin-2-amine] |
| ≤ 10 nM | CNCc1ccc(-c2nnc(-c3nc(-c4ccc(S(=O)(=O)C(C)C)cc4C(F)F)cnc3N)o2)cc1 [IA-322, 5-[2-(difluoromethyl)-4-isopropylsulfonyl-phenyl]-3-[5-[4-(methylaminomethyl)phenyl]-1,3,4-oxadiazol-2-yl]pyrazin-2-amine] |
| ≤ 10 nM | CNCc1ccc(-c2nnc(-c3nc(-c4ccc(S(=O)(=O)C5CCOCC5)cc4)cnc3N)o2)cc1 [IA-323, 3-[5-[4-(methylaminomethyl)phenyl]-1,3,4-oxadiazol-2-yl]-5-(4-tetrahydropyran-4-ylsulfonylphenyl)pyrazin-2-amine] |
| ≤ 10 nM | CNCc1ccc(-c2nnc(-c3nc(-c4ccc(S(=O)(=O)C(C)CN(C)C)cc4)cnc3N)o2)cc1 (centres unmarked) [IA-324, 5-[4-[2-(dimethylamino)-1-methyl-ethyl]sulfonylphenyl]-3-[5-[4-(methylaminomethyl)phenyl]-1,3,4-oxadiazol-2-yl]pyrazin-2-amine] |
| ≤ 10 nM | CCc1cc(-c2cnc(N)c(-c3nnc(-c4ccc(CNC)cc4)o3)n2)ccc1S(=O)(=O)C(C)C [IA-326, 5-(3-ethyl-4-isopropylsulfonyl-phenyl)-3-[5-[4-(methylaminomethyl)phenyl]-1,3,4-oxadiazol-2-yl]pyrazin-2-amine] |
| ≤ 10 nM | Nc1ncc(-c2ccc(S(=O)(=O)C3CCOCC3)cc2)nc1-c1nnc(-c2ccccc2F)o1 [IA-327, 3-[5-(2-fluorophenyl)-1,3,4-oxadiazol-2-yl]-5-(4-tetrahydropyran-4-ylsulfonylphenyl)pyrazin-2-amine] |

| Ki | SMILES |
| --- | --- |
| ≤ 10 nM | CNCc1ccc(-c2nnc(-c3nc(-c4ccc(S(=O)(=O)C(C)CC(C)(C)O)cc4)cnc3N)o2)c(F)c1 (centres unmarked) [IA-328, 4-[4-[5-amino-6-[5-[2-fluoro-4-(methylaminomethyl)phenyl]-1,3,4-oxadiazol-2-yl]pyrazin-2-yl]phenyl]sulfonyl-2-methyl-pentan-2-ol] |
| ≤ 10 nM | CNCc1ccc(-c2nnc(-c3nc(-c4ccc(S(=O)(=O)C(C)C)c(Cl)c4)cnc3N)o2)c(F)c1 [IA-329, 5-(3-chloro-4-isopropylsulfonyl-phenyl)-3-[5-[2-fluoro-4-(methylaminomethyl)phenyl]-1,3,4-oxadiazol-2-yl]pyrazin-2-amine] |
| ≤ 10 nM | CNCc1ccc(-c2nnc(-c3nc(-c4ccc(S(=O)(=O)C(C)CCOC)cc4)cnc3N)o2)cc1 (centres unmarked) [IA-330, 5-[4-(3-methoxy-1-methyl-propyl)sulfonylphenyl]-3-[5-[4-(methylaminomethyl)phenyl]-1,3,4-oxadiazol-2-yl]pyrazin-2-amine] |
| ≤ 10 nM | CNCc1ccc(-c2nnc(-c3nc(-c4ccc(S(=O)(=O)C(C)C)cc4C#N)cnc3N)o2)cc1 [IA-331, 2-[5-amino-6-[5-[4-(methylaminomethyl)phenyl]-1,3,4-oxadiazol-2-yl]pyrazin-2-yl]-5-isopropylsulfonyl-benzonitrile] |
| ≤ 10 nM | CC(C)S(=O)(=O)c1ccc(-c2cnc(N)c(-c3nnc(-c4ccc(CN[C@H](C)CO)cc4F)o3)n2)cc1 [IA-333, (R)-2-(4-(5-(3-amino-6-(4-(isopropylsulfonyl)phenyl)pyrazin-2-yl)-1,3,4-oxadiazol-2-yl)-3-fluorobenzylamino)propan-1-ol] |
| ≤ 10 nM | CC(C)S(=O)(=O)c1ccc(-c2cnc(N)c(-c3nnc(-c4ccc(CNC[C@H](C)O)cc4F)o3)n2)cc1 [IA-334, (S)-1-(4-(5-(3-amino-6-(4-(isopropylsulfonyl)phenyl)pyrazin-2-yl)-1,3,4-oxadiazol-2-yl)-3-fluorobenzylamino)propan-2-ol] |
| ≤ 10 nM | CC(C)S(=O)(=O)c1ccc(-c2cnc(N)c(-c3nnc(-c4ccc(CN[C@@H](C)CO)cc4F)o3)n2)cc1 [IA-335, (S)-2-(4-(5-(3-amino-6-(4-(isopropylsulfonyl)phenyl)pyrazin-2-yl)-1,3,4-oxadiazol-2-yl)-3-fluorobenzylamino)propan-1-ol] |
| ≤ 10 nM | CNCc1ccc(-c2nnc(-c3nc(-c4ccc(S(=O)(=O)C(C)C)cc4)cnc3N)o2)cc1F [IA-336, 3-[5-[3-fluoro-4-(methylaminomethyl)phenyl]-1,3,4-oxadiazol-2-yl]-5-(4-isopropylsulfonylphenyl)pyrazin-2-amine] |
| ≤ 10 nM | CC(CN(C)C)S(=O)(=O)c1ccc(-c2cnc(N)c(-c3nnc(-c4ccccc4F)o3)n2)cc1 (centres unmarked) [IA-337, 5-[4-[2-(dimethylamino)-1-methyl-ethyl]sulfonylphenyl]-3-[5-(2-fluorophenyl)-1,3,4-oxadiazol-2-yl]pyrazin-2-amine] |
| ≤ 10 nM | CCC(C)S(=O)(=O)c1ccc(-c2cnc(N)c(-c3nnc(-c4ccc(CNC)cc4F)o3)n2)cc1 (centres unmarked) [IA-338, 3-[5-[2-fluoro-4-(methylaminomethyl)phenyl]-1,3,4-oxadiazol-2-yl]-5-(4-sec-butylsulfonylphenyl)pyrazin-2-amine] |
| ≤ 10 nM | CC(CCO)S(=O)(=O)c1ccc(-c2cnc(N)c(-c3nnc(-c4ccccc4F)o3)n2)cc1 (centres unmarked) [IA-339, 3-[4-[5-amino-6-[5-(2-fluorophenyl)-1,3,4-oxadiazol-2-yl]pyrazin-2-yl]phenyl]sulfonylbutan-1-ol] |
| ≤ 10 nM | CC(C)S(=O)(=O)c1ccc(-c2cnc(N)c(-c3nnc(-c4ccc(CNCCF)cc4F)o3)n2)cc1 [IA-340, 3-[5-[2-fluoro-4-[(2-fluoroethylamino)methyl]phenyl]-1,3,4-oxadiazol-2-yl]-5-(4-isopropylsulfonylphenyl)pyrazin-2-amine] |
| ≤ 10 nM | CC(C)S(=O)(=O)c1ccc(-c2cnc(N)c(-c3nnc(-c4ccc(CNC[C@@H](C)O)cc4F)o3)n2)cc1 [IA-341, (R)-1-(4-(5-(3-amino-6-(4-(isopropylsulfonyl)phenyl)pyrazin-2-yl)-1,3,4-oxadiazol-2-yl)-3-fluorobenzylamino)propan-2-ol] |
| ≤ 10 nM | CNCc1ccc(-c2nnc(-c3nc(-c4ccc(S(=O)(=O)C(C)CCO)cc4)cnc3N)o2)c(F)c1 (centres unmarked) [IA-342, 3-[4-[5-amino-6-[5-[2-fluoro-4-(methylaminomethyl)phenyl]-1,3,4-oxadiazol-2-yl]pyrazin-2-yl]phenyl]sulfonylbutan-1-ol] |
| ≤ 10 nM | CC(CCN(C)C)S(=O)(=O)c1ccc(-c2cnc(N)c(-c3nnc(-c4ccccc4F)o3)n2)cc1 (centres unmarked) [IA-343, 5-[4-[3-(dimethylamino)-1-methyl-propyl]sulfonylphenyl]-3-[5-(2-fluorophenyl)-1,3,4-oxadiazol-2-yl]pyrazin-2-amine] |
| ≤ 10 nM | CNCc1ccc(-c2nnc(-c3nc(-c4ccc(S(=O)(=O)C5CCOCC5)cc4)cnc3N)o2)c(F)c1 [IA-344, 3-[5-[2-fluoro-4-(methylaminomethyl)phenyl]-1,3,4-oxadiazol-2-yl]-5-(4-tetrahydropyran-4-ylsulfonylphenyl)pyrazin-2-amine] |
